One test addresses T1, KAT6B (Homo sapiens, UniProt Q8WYB5).
T1 construct: purchased Active Motif 81224
Description: KATs acetyltransferase enzyme activity assay (TR-FRET), KAT6B. It is filed as biochemical. The settings on record: Biotin-H3 (1-21) and AcCOA, 90 minutes at room temperature. A digest of the protocol: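 TR-FRET assay in Tris-HCl buffer: enzyme preincubated with compound 15 min at room temperature, then biotin-H3(1-21) peptide and acetyl-CoA added for 90 min at room temperature. Acetylation detected with Eu-anti-acetyl-histone H4 lysine antibody and ULight-streptavidin (60 min), 665/620 nm ratio; IC50 from four-parameter logistic fit.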

The subject of the next test is ZR-75-1 cells. Nature of the test: ZR-75-1 cell proliferation assay (CellTiter-Glo). It is filed as cell-based. Particulars: Homo sapiens, ZR-75-1, 240 h, total culture period of 10 days, read-out: ZR-75-1 Proliferation Inhibition IC50. A digest of the protocol:
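ZR-75-1 cells were exposed to compound for 10 days in total at 37°C and 5% CO2, being trypsinized, counted and re-seeded every 5 days, with fresh compound added after each re-seeding. Viability was read by CellTiter-Glo luminescence, and IC50 was derived from a four-parameter logistic fit.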

T1 sequence (Q8WYB5 whole entry): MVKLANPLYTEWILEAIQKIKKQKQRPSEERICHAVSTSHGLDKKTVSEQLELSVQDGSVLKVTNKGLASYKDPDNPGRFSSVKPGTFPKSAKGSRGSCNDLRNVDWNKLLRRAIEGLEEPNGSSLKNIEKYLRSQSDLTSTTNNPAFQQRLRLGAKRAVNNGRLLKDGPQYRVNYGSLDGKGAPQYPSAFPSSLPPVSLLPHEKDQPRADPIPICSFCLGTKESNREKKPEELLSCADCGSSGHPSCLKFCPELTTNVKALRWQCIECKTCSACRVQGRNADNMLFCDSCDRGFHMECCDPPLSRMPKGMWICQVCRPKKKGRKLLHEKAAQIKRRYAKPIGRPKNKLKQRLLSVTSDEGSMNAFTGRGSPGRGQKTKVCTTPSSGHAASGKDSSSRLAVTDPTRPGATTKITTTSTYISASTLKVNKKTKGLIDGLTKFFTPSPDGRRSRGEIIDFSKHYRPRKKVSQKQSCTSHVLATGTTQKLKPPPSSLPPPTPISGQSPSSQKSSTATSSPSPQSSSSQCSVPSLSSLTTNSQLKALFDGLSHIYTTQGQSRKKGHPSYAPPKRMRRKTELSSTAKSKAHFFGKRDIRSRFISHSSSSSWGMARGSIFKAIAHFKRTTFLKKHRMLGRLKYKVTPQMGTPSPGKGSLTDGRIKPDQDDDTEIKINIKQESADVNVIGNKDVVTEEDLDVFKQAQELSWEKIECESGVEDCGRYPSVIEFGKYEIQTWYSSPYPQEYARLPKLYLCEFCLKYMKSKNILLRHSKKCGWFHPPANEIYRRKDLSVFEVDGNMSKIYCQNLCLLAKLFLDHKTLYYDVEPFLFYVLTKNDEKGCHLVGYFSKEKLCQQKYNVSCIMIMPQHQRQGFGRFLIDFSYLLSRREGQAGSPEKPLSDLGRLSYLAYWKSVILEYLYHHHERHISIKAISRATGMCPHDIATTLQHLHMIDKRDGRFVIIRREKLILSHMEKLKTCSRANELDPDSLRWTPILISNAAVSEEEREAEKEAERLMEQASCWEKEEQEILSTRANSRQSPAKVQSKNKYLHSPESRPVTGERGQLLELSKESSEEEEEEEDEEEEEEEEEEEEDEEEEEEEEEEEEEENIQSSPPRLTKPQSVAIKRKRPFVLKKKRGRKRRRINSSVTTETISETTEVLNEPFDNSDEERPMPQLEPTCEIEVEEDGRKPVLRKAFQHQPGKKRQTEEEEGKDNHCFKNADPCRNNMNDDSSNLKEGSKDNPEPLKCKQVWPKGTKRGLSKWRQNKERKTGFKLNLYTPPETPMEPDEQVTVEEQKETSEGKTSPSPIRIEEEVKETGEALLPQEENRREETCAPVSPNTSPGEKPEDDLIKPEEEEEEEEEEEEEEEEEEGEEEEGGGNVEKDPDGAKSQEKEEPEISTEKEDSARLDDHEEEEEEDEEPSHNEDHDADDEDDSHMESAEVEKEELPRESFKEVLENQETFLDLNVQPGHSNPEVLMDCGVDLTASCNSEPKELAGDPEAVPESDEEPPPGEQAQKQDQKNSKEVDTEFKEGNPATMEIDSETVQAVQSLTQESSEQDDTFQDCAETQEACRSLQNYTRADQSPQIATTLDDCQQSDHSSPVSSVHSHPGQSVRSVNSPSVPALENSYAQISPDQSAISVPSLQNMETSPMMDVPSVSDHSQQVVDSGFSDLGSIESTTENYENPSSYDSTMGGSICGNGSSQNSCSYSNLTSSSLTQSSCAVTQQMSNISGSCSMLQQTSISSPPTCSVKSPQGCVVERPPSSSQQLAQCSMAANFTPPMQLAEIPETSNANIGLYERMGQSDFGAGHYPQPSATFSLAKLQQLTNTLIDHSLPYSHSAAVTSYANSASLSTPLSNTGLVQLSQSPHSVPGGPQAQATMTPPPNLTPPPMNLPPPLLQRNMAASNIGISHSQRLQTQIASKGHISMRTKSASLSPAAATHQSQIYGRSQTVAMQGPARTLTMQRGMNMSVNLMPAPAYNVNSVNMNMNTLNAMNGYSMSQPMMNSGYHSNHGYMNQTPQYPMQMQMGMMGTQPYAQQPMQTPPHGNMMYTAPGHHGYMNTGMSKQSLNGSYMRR

`COc1ccc2c(c1S(=O)(=O)Nc1noc3cc(Cn4cccn4)cc(OC)c13)OCCCO2` [Compound 2, N-(6-((1H-Pyrazol-1-yl)methyl)-4-methoxybenzo[d]isoxazol-3-yl)-7-methoxy-3,4-dihyd ro-2H-benzo[b][1,4]dioxepine-6-sulfonamide]: the figures for the IC50 against KAT6B and in the test with ZR-75-1 cells were 25.2 nM and 3.2 nM, respectively.
On the same counts, the results for `COc1ccc2c(c1S(=O)(=O)Nc1noc3cc(Cn4cccn4)cc(OC)c13)OC[C@@H]1C[C@H]21` [Compound 5-P2, (1aR,7bS)-N-(6-((1H-Pyrazol-1-yl)methyl)-4-methoxybenzo[d]isoxazol-3-yl)-5-methoxy-1,1a,2,7b-tetrahydrocyclopropa[c]chromene-4-sulfonamide] are 1.6 nM and 0.1 nM.

The values are drawn from patent EP4741389A1, “KAT6 INHIBITOR” (Shanghai Qilu Pharmaceutical Research and Development …, priority 2023, dated 2025).
